Data as given in patent EP0417790B1, “S-triazolo[3,4-i]purine derivatives” (Kyowa Hakko Kogyo Co., Ltd., priority 1989, dated 1991).
Read-outs that look alike come from different tables or passages of the source.

What was measured:
[1] = tested on: Male ddy mice; assay: Electroconvulsive shock (ECS)-induced amnesia, step through passive avoidance; format: in vivo; details: mean ± S.E.M., control 70.9±13.5
Method: Male ddy mice (weighing 23 to 29 g) were used and each group consists of 14 to 15 animals. These tests were performed with a step through type passive avoidance apparatus. As experimental apparatus, two rooms (bright and dark) with automatic management system were used. An experimental apparatus is composed of a bright room equipped with 4W of fluorescent light (15 x 9 x 11 cm) and a dark room (15 x 14 x 18 cm), the two rooms are separated by a guillotine door of 3 x 3 cm. The floor of both rooms is stainless steal grid floor and the weak electric current can be send the grid floor of dark room. In the automatic management system, latency of acquisition trial and test trial are measured automatically by controlling with a controller (TK-402, by UNICOM, Japan).
The test compound was dissolved in saline and saline was used as a control. The test compound and the saline (control) were orally administered 60 minutes before the acquisition trial, respectively.
Acquisition trial for learning was performed as follows. […] As soon as the mouse entered the dark room, a scrambled foot-shock (0.18 mA) was delivered to the floor grid for 2 seconds. In the test trial, given 24 hours after the acquisition trial, the animal was again placed in the bright room and the response latency to enter the dark room was measured. The mice which required over 60 seconds to move from the bright room into the dark room were excluded from the test trial. Immediately after the acquisition trial, electric convulsive shock (ECS) (25 mA, 0.2 second, 2000 V) was loaded on mice. The test trial was performed 24 hours after the ECS treatment as follows. The mice received the acquisition trial were placed in the bright room and, latency from the door opening to the entrance of the whole body of animal into the dark room was measured. The maximum measurement time was 600 seconds and latency exceeding 600 seconds was recorded as 600 seconds.
Statistical significance between the control group and test compound treated group was judged by Man Whitney U-test.

[2] = tested on: male dd-mice; assay: Acute toxicity; format: in vivo; details: Minimum lethal dose, oral, mortality observed for seven days
Method: The compounds were orally administrated to male dd-mice weighing 20 ± 1 g. Minimum lethal dose (MLD) was determined by observing the mortality for seven days after the administration.

[3] = tested on: mice; assay: Scopolamine-induced amnesia, step through passive avoidance; format: in vivo; details: scopolamine 0.5 mg/kg i.p., mean ± S.E.M., controls 40.9±8.1 (Compound 41), 37.0±6.2 (Compound 51)
Method: Acquisition trial was performed in a manner similar to Experiment (f). Amnestic treatment was performed by intraperitoneal administration of scopolamine (0.5 mg/kg), 30 minutes prior to the acquisition trial. The test trial was performed 24 hours after the acquisition trial and its latency was determined as in Experiment (f).
Preparation of administrated test compound was performed in a manner similar to Experiment (f). Test compound and the saline were orally administered 60 minutes before the acquisition trial, respectively.

[4] = tested on: Wistar male rats; assay: Diuretic activity; format: in vivo; details: Rattus norvegicus, po, 25 mg/kg orally, urine taken for 6 hours
Method: Wistar male rats weighing 150 to 300 g were used after fasting for 18 hours. […] The test was performed using 3 groups per test compound, and each group consists of 3 animals. The urine was metered by a measuring cylinder and electrolytes (Na^+ and K^+) in the urine were analyzed by flame photometer (model […]: Hitachi Ltd.). Parameters in Table 3 are represented by relative value for control.

[5] = tested on: male dd mice; assay: Inhibition of platelet activating factor (PAF)-induced mortality; format: in vivo; details: Mus musculus, minimum effective dose, oral, 1 hour before 40 µg/kg PAF i.v., mortality 2 hours after PAF, read-out: PAF-induced mortality MED
Method: The experiment was performed by a minor modification of method of Carlson et al. [Agents and Actions, 21, 379 (1987)]. Groups each consisting of 10 male dd mice (weighing 28 to 32 g) were used, and 100 mg/kg of test compound or a saline (control) was orally administrated. One hour after the administration of test compound, 40 µg/kg of PAF (manufactured by Avanti Polar Lipids Co., Ltd.) was intravenously administered. Two hours after PAF injection, the mortality rate of the animals was observed. […]

[6] = tested on: Hartley male guinea pigs; assay: Experimental asthma (collapse time after antigen aerosol); format: in vivo; details: 1 hour before 1.5% EWA aerosol, n=3-10 mean±S.E.M., control 254 ± 18
Method: Guinea pigs were passively sensitized as follows. Hartley male guinea pigs weighing 350 to 500 g were intraperitoneally injected with 1 ml of rabbit anti-egg alubmin (EWA) serum prepared by the method of Koda et al. [Folia pharmacol., Japon, 66, 237 (1970)]. The animals were treated with intraperitoneal injection of diphenhydramine (20 mg/kg) and propranolol (5 mg/kg), 30 minutes before administration of test compounds. 17 hours after the sensitization, the test compounds (50 mg/kg or 5 mg/kg) or saline (control) were orally administrated to sensitized animals. After one hour from the administration of the test compounds, the guinea pigs were placed in plastic observation box and were exposed to an aerosal antigen of 1.5% EWA.
The time until the onset of respiratory distress-like symptom [collapse time (second)] was measured as a result of experimental asthma.

[7] = tested on: trachea; assay: Passive Schultz-Dale reaction (broncho-dilatory effect) on isolated tracheal strips; details: Cavia porcellus; 50% relaxation of antigen (EWA, 1 µg/ml)-contracted tracheal strips of passively sensitized guinea pigs
Method: Guinea pigs were passively sensitized as follows. Hartley male guinea pigs weighing 350 to 500 g were injected intraperitoneally with rabbit anti-egg albumin (EWA) serum prepared by the method of Koda et al. [Folia pharmacol., Japon 66, 237, (1970)]. After 24 hours, the guinea pigs were stunned and exsanguinated, and then trachea was excised. The zig-zag strips of the trachea were prepared by the method of Emmerson and Mackay [J. Pharm. Pharmacol., 31, 798, (1979)]. The strips were suspended in Krebs-Henseleit solution at 37°C under aeration of a mixed gas of 95% oxygen and 5% carbon dioxide, and incubated for one hour. Antigen (EWA) was then introduced in the solution (final concentration; 1 µg/ml), and the contraction was measured by isotonictransducer (TD-112s, made by Nihon Kohden K.K., Japan) and recorded on a recorder (Type 3066, made by Yokogawa-Hokushin Denki, K.K. Japan). After the contraction curves reached plateau the compounds were successively added in order to get cumulative concentration-relaxation curves. Concentration of 50% relaxation rate (IC50) was calculated from the regression line, which was obtained from cumulative concentration-relaxation curves.

[8] = 0.625 mg/kg orally 60 minutes before acquisition trial
[9] = 2.5 mg/kg orally 60 minutes before acquisition trial
[10] = 10 mg/kg orally 60 minutes before acquisition trial
[11] = 40 mg/kg orally 60 minutes before acquisition trial
[12] = relative value for control (1.00), read-out: Na^+/K^+
[13] = relative value for control (100), read-out: Excretion of K^+
[14] = relative value for control (100), read-out: Excretion of Na^+
[15] = relative value for control (100), read-out: Urine volume

With `CCCn1c(=O)n2c(=O)[nH]nc2c2c1ncn2C` [Compound 41, 9-Methyl-6-n-propyl-2,5,6,9-tetrahydro-3H-1,2,4-triazolo[3,4-i]purin-3,5-dione] the “Latency of test trial” value [1, 8] was 105.9 ± 44.0 s, the “Latency of test trial” value [1, 9] was 111.3 ± 20.1 s and the “Latency of test trial” value [1, 10] was 97.4 ± 38.7 s. The “Latency of test trial” value [1, 11] was 171.8 ± 43.1 s, the MLD [2] was over 300 mg/kg and the “Latency of test trial” value [3, 8] was 96.8 ± 21.5 s. The “Latency of test trial” value [3, 9] was 115.8 ± 26.6 s, the “Latency of test trial” value [3, 10] was 53.4 ± 8.9 s and the “Latency of test trial” value [3, 11] was 74.3 ± 18.8 s.

Molecule `CCCn1c(=O)n2c(-c3ccc(Cl)cc3)nnc2c2c1ncn2C` [Compound 12, 3-(4-Chlorophenyl)-6,9-dihydro-9-methyl-6-n-propyl-5H-1,2,4-triazolo[3,4-i]purin-5-one] has a response vs control in vivo at 25 mg/kg [4, 12] of 142%, a response vs control in vivo at 25 mg/kg [4, 13] of 129% and a response vs control in vivo at 25 mg/kg [4, 14] of 183%. It also gave a response vs control in vivo at 25 mg/kg [4, 15] of 198%, a minimal effective dose [5] of 100 mg/kg and an MLD [2] of over 300 mg/kg. The “Experimental asthma Collapse time” value ([6]; 5 mg/kg orally) was 399 ± 55 s and the IC50 [7] was 26 µM.

`CCCn1c(=O)n2c(-c3ccncc3)nnc2c2[nH]cnc21` [Compound 31, 6,9-Dihydro-6-n-propyl-3-(4-pyridyl)-5H-1,2,4-triazolo[3,4-i]purin-5-one] showed a response vs control in vivo at 25 mg/kg [4, 12] of 166%, a response vs control in vivo at 25 mg/kg [4, 13] of 118% and a response vs control in vivo at 25 mg/kg [4, 14] of 196%. For the same molecule, the response vs control in vivo at 25 mg/kg [4, 15] was 191%, the minimal effective dose [5] was 25 mg/kg and the MLD [2] was over 300 mg/kg. The “Experimental asthma Collapse time” value ([6]; 50 mg/kg orally) was 512 ± 52 s and the IC50 [7] was 11 µM.
